Laboratory results published in US20140051575A1 (priority 2011, published 2014).

How the values were obtained:
Pythium ultimum = experiment: Pythium test (cotton)/seed treatment; assay type: in vivo; settings: 50 g/dt seed of active ingredient, greenhouse 7 days, 100% = all seedlings have emerged
Description: The test is performed under greenhouse conditions.
Cotton seeds, treated with the active compound or compound combinations, solved in N-methyl-2-pyrrolidon and diluted with water to the desired dosages, were sown in 6*6 cm pots containing 4 cm of a 1:1 mix of steamed field soil and sand.
Perlite was incubated with mycelium fragments of Pythium ultimum. 1 ml of infected perlite was scattered between the treated cotton seeds. Seeds were then covered by light expanded clay aggregate. Pots were incubated in the greenhouse 7 days at 20° C. and 80% relative humidity.
Assessment consisted of counting of emerged seedlings. 0% means an efficacy which corresponds to that of the control, while an efficacy of 100% means that all seedlings have emerged.

Plasmopara viticola = experiment: Plasmopara test (grapevines)/preventive; assay type: in vivo; settings: preventive spray, 10 ppm of active ingredient, evaluated 6 days after inoculation, 0% = untreated control, 100% = no disease
Description: To produce a suitable preparation of active compound, 1 part by weight of active compound is mixed with the stated amounts of solvent and emulsifier, and the concentrate is diluted with water to the desired concentration.
To test for preventive activity, young plants are sprayed with the preparation of active compound at the stated rate of application. After the spray coating has dried on, the plants are inoculated with an aqueous spore suspension of Plasmopara viticola and then remain for 1 day in an incubation cabinet at approximately 20° C. and a relative atmospheric humidity of 100%. The plant is subsequently placed for 4 days in a greenhouse at approximately 21° C. and a relative atmospheric humidity of approximately 90%. The plants are then misted and placed for 1 day in an incubation cabinet.
The test is evaluated 6 days after the inoculation. 0% means an efficacy which corresponds to that of the untreated control, while an efficacy of 100% means that no disease is observed.

[1] = Measurement of logP values by HPLC on reversed phase columns (EEC directive 79/831 Annex V.A8); assay type: physicochemical; settings: pH 2.7, 0.1% formic acid in water / acetonitrile gradient, calibration with alkan-2-ones
Description: Measurement of logP values was performed according EEC directive 79/831 Annex V.A8 by HPLC (High Performance Liquid Chromatography) on reversed phase columns with the following methods:
Measurement of LC-MS was done at pH 2.7 with 0.1% formic acid in water and with acetonitrile (contains 0.1% formic acid) as eluent with a linear gradient from 10% acetonitrile to 95% acetonitrile.
Calibration was done with not branched alkan2-ones (with 3 to 16 carbon atoms) with known logP-values (measurement of logP values using retention times with linear interpolation between successive alkanones). lambda-maX-values were determined using UV-spectra from 200 nm to 400 nm and the peak values of the chromatographic signals.

Phytophthora infestans = assay type: in vivo; settings: tomato plants, preventive spray, 500 ppm of active ingredient, evaluated 7 days after inoculation; 0% = untreated control, 100% = no disease

Structure (SMILES) | Eff. % (Pythium ultimum) [%] | Eff. % (Plasmopara viticola) [%] | Log P [1] | Eff. % (Phytophthora infestans) [%]
CC(OCC1CC1)C(=O)Nc1cccc(CON=C(c2ccccc2)c2nnnn2C)n1 (centres unmarked) [Example 2] | 100 | 95 | 3.55 | 
Cn1nnnc1C(=NOCc1cccc(NC(=O)COCC2CCC2)n1)c1ccccc1 [Example 4] |  | 80 | 3.83 | 97
CC(OCC1CC1)C(=O)Nc1ccc(F)c(CON=C(c2ccccc2)c2nnnn2C)n1 (centres unmarked) [Example 9] |  | 89 | 3.71 | 100
CC(OCC1CCC1)C(=O)Nc1cccc(CON=C(c2ccccc2)c2nnnn2C)n1 (centres unmarked) [Example 12] |  | 84 | 4.16 | 100
Cn1nnnc1C(=NOCc1csc(NC(=O)COCC2CC2)n1)c1ccccc1 [Example 13] |  | 79 | 3.04 | 
CC(OCC1CC1)C(=O)Nc1nc(CON=C(c2ccccc2)c2nnnn2C)cs1 (centres unmarked) [Example 14] | 100 | 97 | 3.29 | 100
Cn1nnnc1C(=NOCc1csc(NC(=O)COCC2CCC2)n1)c1ccccc1 [Example 15] |  | 100 | 3.52 | 100
Cn1nnnc1C(=NOCc1csc(NC(=O)COCC2CCCC2)n1)c1ccccc1 [Example 16] |  | 90 | 3.9 | 97
Cn1nnnc1C(=NOCc1csc(NC(=O)COCC2CCCCC2)n1)c1ccccc1 [Example 17] |  | 94 | 4.29 | 100
CC(OCC1CCCC1)C(=O)Nc1nc(CON=C(c2ccccc2)c2nnnn2C)cs1 (centres unmarked) [Example 19] |  | 91 | 4.25 | 100
CC(OCC1CCC1)C(=O)Nc1nc(CON=C(c2ccccc2)c2nnnn2C)cs1 (centres unmarked) [Example 22] |  | 88 | 3.83 | 100
Cc1nnnn1C(=NOCc1cccc(NC(=O)C(C)OCC2CC2)n1)c1ccccc1 (centres unmarked) [Example 24] |  | 81 | 3.63 | 100
Cc1nnnn1C(=NOCc1cccc(NC(=O)COCC2CCC2)n1)c1ccccc1 [Example 25] |  | 80 | 3.92 | 97
Cc1nnnn1C(=NOCc1csc(NC(=O)COCC2CC2)n1)c1ccccc1 [Example 33] |  | 94 | 3.11 | 
Cc1nnnn1C(=NOCc1csc(NC(=O)C(C)OCC2CC2)n1)c1ccccc1 (centres unmarked) [Example 34] | 92 | 94 | 3.35 | 100
Cc1nnnn1C(=NOCc1csc(NC(=O)COCC2CCC2)n1)c1ccccc1 [Example 35] |  | 91 | 3.59 | 100
Cc1nnnn1C(=NOCc1csc(NC(=O)C(C)OCC2CCC2)n1)c1ccccc1 (centres unmarked) [Example 42] |  | 93 | 3.9 | 100
CC(C)CCOCC(=O)Nc1nc(CON=C(c2ccccc2)c2nnnn2C)cs1 [Example 45] |  | 91 | 3.8 | 100
Cn1nnnc1C(=NOCc1cccc(NC(=O)COCc2ccccc2)n1)c1ccccc1 [Example 48] |  | 96 | 3.63 | 95
CC(OCc1ccccc1)C(=O)Nc1nc(CON=C(c2ccccc2)c2nnnn2C)cs1 (centres unmarked) [Example 49] |  | 92 | 3.71 | 
Cn1nnnc1C(=NOCc1csc(NC(=O)COCc2ccccc2)n1)c1ccccc1 [Example 50] | 93 | 100 | 3.37 | 100
CC(OCC1CCCO1)C(=O)Nc1nc(CON=C(c2ccccc2)c2nnnn2C)cs1 (centres unmarked) [Example 60] |  | 85 | 3.15 | 100
Cc1ccccc1CSCC(=O)Nc1cccc(CON=C(c2ccccc2)c2nnnn2C)n1 [Example 65] |  | 84 |  | 

Structure (SMILES) | Eff. % (Pythium ultimum) [%] | Eff. % (Plasmopara viticola) [%] | Log P [1] | Eff. % (Phytophthora infestans) [%]
Cn1nnnc1C(=NOCc1cccc(NC(=O)CSCC2CC2)n1)c1ccccc1 [Example 67] |  | 78 | 3.51 | 
CC(SCc1ccccc1)C(=O)Nc1nc(CON=C(c2ccccc2)c2nnnn2C)cs1 (centres unmarked) [Example 71] |  | 82 | 3.8 | 100
CC(SC1CCCCC1)C(=O)Nc1nc(CON=C(c2ccccc2)c2nnnn2C)cs1 (centres unmarked) [Example 74] |  | 82 | 4.12 | 100
Cc1ccccc1CSCC(=O)Nc1nc(CON=C(c2ccccc2)n2nnnc2C)cs1 [Example 88] |  | 84 | 4.06 | 100
Cn1nnnc1C(=NOCc1cccc(NC(=O)C2Cc3ccccc32)n1)c1ccccc1 (centres unmarked) [Example 91] |  | 77 | 3.58 | 
COC(C)CC(CC(=O)Nc1cccc(CON=C(c2ccccc2)c2nnnn2C)n1)OC (centres unmarked) [Example 96] |  | 78 | 2.9 | 100
Cn1nnnc1C(=NOCc1cccc(NC(=O)OCCCOC2CCCC2)n1)c1ccccc1 [Example 98] |  | 81 | 4.14 | 100
Cn1nnnc1C(=NOCc1csc(NC(=O)C(C)(C)CSC2CCCCC2)n1)c1ccccc1 [Example 102] |  |  | 4.77 | 100
COC(C)CC(CC(=O)Nc1nc(CON=C(c2ccccc2)c2nnnn2C)cs1)OC (centres unmarked) [Example 103] |  |  | 2.78 | 95
CC(COCc1ccccc1)C(=O)Nc1nc(CON=C(c2ccccc2)c2nnnn2C)cs1 (centres unmarked) [Example 104] |  |  | 3.65 | 100
CC(OCC(=O)Nc1nc(CON=C(c2ccccc2)c2nnnn2C)cs1)c1ccccc1 (centres unmarked) [Example 105] |  |  | 3.7 | 95
Cn1nnnc1C(=NOCc1csc(NC(=O)CCOCc2ccccc2)n1)c1ccccc1 [Example 106] |  |  | 3.33 | 93
Cn1nnnc1C(=NOCc1csc(NC(=O)CCSCc2ccc(F)cc2)n1)c1ccccc1 [Example 107] |  |  | 3.73 | 95
Cn1nnnc1C(=NOCc1csc(NC(=O)CCSCc2ccccc2)n1)c1ccccc1 [Example 108] |  |  | 3.69 | 90
Cc1nnnn1C(=NOCc1cccc(NC(=O)C(C)(C)CSC2CCCCC2)n1)c1ccccc1 [Example 109] |  |  | 5.08 | 95
Cc1nnnn1C(=NOCc1cccc(NC(=O)CCOCc2ccccc2)n1)c1ccccc1 [Example 110] |  |  | 3.55 | 85
Cc1nnnn1C(=NOCc1cccc(NC(=O)CCSCc2ccc(F)cc2)n1)c1ccccc1 [Example 111] |  |  | 3.92 | 90
Cc1nnnn1C(=NOCc1cccc(NC(=O)CCSCc2ccccc2)n1)c1ccccc1 [Example 112] |  |  | 3.89 | 88
Cc1nnnn1C(=NOCc1csc(NC(=O)C(C)(C)CSC2CCCCC2)n1)c1ccccc1 [Example 113] |  |  | 4.85 | 98
Cc1nnnn1C(=NOCc1csc(NC(=O)CCOCc2ccccc2)n1)c1ccccc1 [Example 114] |  |  | 3.37 | 93
Cc1nnnn1C(=NOCc1csc(NC(=O)CCSCc2ccc(F)cc2)n1)c1ccccc1 [Example 115] |  |  | 3.78 | 80
Cc1nnnn1C(=NOCc1csc(NC(=O)CCSCc2ccccc2)n1)c1ccccc1 [Example 116] |  |  | 3.73 | 80
